Assay type in all cases: cell-based
For one assay, the target named is T1, AtGTR1 (Arabidopsis thaliana, UniProt Q944G5).
T1 construct: A library of Arabidopsis transporters available as full length cDNAs from the RIKEN bioresource center; expressed in transfected cells; host or cells: Xenopus oocytes injected with in vitro transcribed cRNA
T1 sequence (Q944G5 31-636 limits assumed): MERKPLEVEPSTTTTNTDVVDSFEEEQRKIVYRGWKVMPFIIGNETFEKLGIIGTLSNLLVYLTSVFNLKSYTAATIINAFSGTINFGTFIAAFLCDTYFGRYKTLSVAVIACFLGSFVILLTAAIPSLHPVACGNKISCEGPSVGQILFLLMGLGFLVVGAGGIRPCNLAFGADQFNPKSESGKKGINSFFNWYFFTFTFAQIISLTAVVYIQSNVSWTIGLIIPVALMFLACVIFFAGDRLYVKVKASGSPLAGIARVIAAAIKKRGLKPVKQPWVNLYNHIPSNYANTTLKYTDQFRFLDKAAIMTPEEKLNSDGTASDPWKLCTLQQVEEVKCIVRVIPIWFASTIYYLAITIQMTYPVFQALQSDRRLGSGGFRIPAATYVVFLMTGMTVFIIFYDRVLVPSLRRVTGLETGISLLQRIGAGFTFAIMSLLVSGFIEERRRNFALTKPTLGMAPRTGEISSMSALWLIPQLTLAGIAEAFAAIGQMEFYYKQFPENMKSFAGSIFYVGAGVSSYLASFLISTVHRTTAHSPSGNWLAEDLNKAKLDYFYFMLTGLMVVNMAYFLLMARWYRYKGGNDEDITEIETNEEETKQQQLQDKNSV
Put plainly: Substrate-induced currents in voltage-clamped Xenopus oocytes expressing AtGTR1. The conditions noted are these: AtGTR1.

For assay [1], the target named is T2, AtGTR2 (Arabidopsis thaliana, UniProt Q9LV10).
T2 construct: expressed in transfected cells; host or cells: Xenopus oocytes injected with in vitro transcribed cRNA (vector pNB1u)
T2 sequence (Q9LV10 1-616): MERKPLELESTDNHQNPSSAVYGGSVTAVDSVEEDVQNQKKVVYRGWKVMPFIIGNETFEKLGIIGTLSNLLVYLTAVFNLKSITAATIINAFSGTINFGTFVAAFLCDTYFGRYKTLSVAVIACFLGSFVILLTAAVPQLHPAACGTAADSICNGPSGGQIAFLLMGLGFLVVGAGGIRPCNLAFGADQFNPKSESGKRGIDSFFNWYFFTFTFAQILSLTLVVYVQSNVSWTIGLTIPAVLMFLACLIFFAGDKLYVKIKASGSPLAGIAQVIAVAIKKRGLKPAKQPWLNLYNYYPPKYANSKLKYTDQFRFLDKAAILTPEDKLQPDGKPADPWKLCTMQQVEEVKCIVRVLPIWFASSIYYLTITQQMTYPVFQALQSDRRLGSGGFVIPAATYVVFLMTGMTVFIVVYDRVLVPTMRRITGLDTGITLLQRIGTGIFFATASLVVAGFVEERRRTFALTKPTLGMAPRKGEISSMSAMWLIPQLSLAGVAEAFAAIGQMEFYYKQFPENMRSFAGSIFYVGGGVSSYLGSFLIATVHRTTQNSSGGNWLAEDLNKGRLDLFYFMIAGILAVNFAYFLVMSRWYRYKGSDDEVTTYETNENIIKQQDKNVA
Put plainly: Substrate-induced currents in voltage-clamped Xenopus oocytes expressing AtGTR2. The protocol:
FIG. 3: Biochemical analysis of AtGTR1 and 2 mediated GSL transport in Xenopus oocytes. A and B, pH dependence of AtGTR-mediated GSL transport. A, AtGTR2 mediated 4-MTB uptake measured by LC-MS analysis of oocyte extracts, n=3 oocytes. B, AtGTR1 currents induced by 1 mM 4-MTB were measured at different membrane potentials at pH 5 ([…]), pH 6 (♦), and pH 7 (▴). Currents were normalized to the current induced at pH 5 at −60 mV, error bars are SD, n=4 oocytes. C and D, kinetic analysis of AtGTR-mediated glucosinolate transport. Normalized glucosinolate dependent currents at a membrane potential of −60 mV are plotted against 4-MTB concentrations, line indicates a fit of the Michaelis-Menten equation to the data; error bars are SD. For AtGTR1 (n=6 oocytes); For AtGTR2 (n=5 oocytes). Each oocyte-dataset were normalized to current elicited at 100 μM 4-MTB. E and F, substrate specificity of AtGTRs. E, AtGTR1 and AtGTR2 uptake of 0.04 mM C-14 labeled pOHBG at pH 5 in the presence of 2 mM 4-MTB, 2 mM NO3^−, 2 mM glucose+2 mM SO4^−−, or a solution of 2 mM Ala-His+2 mM Asp-Ala+2 mM Gly-Leu+2 mM Ala-Phe+2 mM Gly-Glu+2 mM Gly-Gly-Gly, error bars are SD, n=8 oocytes. F, AtGTR1 currents induced by endogenous and exogenous glucosinolates, representative positive, negative and neutral dipeptides and two tripeptides Currents were normalized to the current induced by 100 μM 4-MTB at pH 5 clamped at −60 mV, error bars are SD, n=4 oocytes.
When current recordings were performed on oocytes expressing, respectively, AtGTR1 and AtGTR2 exposed to 100 μM 4-MTB at pH 5 and voltage clamped at −50 mV elicited inward currents in the 30 nA range. This indicates a net influx of positive ions through the AtGTRs upon exposure to GSLs. GSL-induced inward currents were voltage dependent increasing with hyperpolarizing membrane potential within the range of +30 to −120 mV (FIGS. 3B and F). […] This observation was also noticeable in substrate dependent transport rates measured by direct LC-MS detection of GSL uptake.

Assay [2] has as its target T2, AtGTR2. Put plainly: Glucosinolate uptake by AtGTR2 expressing oocytes, LC-MS analysis of oocyte extracts. The settings on record: data not shown.

With `CSCCCC/C(=N/OS(=O)(=O)O)S[C@@H]1O[C@H](CO)[C@@H](O)[C@H](O)[C@H]1O` [4-MTB, 4-methylthiobutyl glucosinolate], the inward current at AtGTR1 (100 μM substrate, pH 5, voltage clamped at −50 mV) is recorded as roughly 30 nA; on AtGTR2 [1] (100 μM substrate, pH 5, voltage clamped at −50 mV, AtGTR2), roughly 30 nA. For the same compound, the Michaelis-Menten constant (Km) on AtGTR1 (pH 5, clamped at −60 mV, Michaelis-Menten) was determined as 20 ± 1.2 µM; on AtGTR2 [1] (pH 5, clamped at −60 mV, Michaelis-Menten, AtGTR2) it was 18.7 ± 4.2 µM. Further, on AtGTR2 [1] (AtGTR2, 500 μM 4-MTB), the “substrate dependent transport rate at 500 μM, lower than at 250 μM and 1 mM” value came out at 25%. Also, the “uptake by AtGTR2 measured by LC-MS analysis of oocyte extracts” value at AtGTR2 [2] is listed as “took up”.

Source of the values: patent US20140137294A1, “GLUCOSINOLATE TRANSPORTER PROTEIN AND USES THEREOF” (UNIVERSITY OF COPENHAGEN, priority 2010, published 2014).
